# ± gives the standard deviation.
# Legend:
# [1] = tested on: Plasmodium falciparum 3D7; experiment: EC50 growth inhibition (60 h, SYBR Green); settings: stage: ring-stage start
# [2] = tested on: Toxoplasma gondii RH tachyzoites; experiment: % growth inhibition vs DMSO (48 h luciferase); higher = more inhibition; settings: 10 µM
# [3] = tested on: Plasmodium falciparum 3D7; experiment: % inhibition of schizont-to-ring transition vs DMSO; higher = more inhibition
# In short: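 Schizont-to-ring transition inhibition is the formation of new rings relative to vehicle controls. Tightly synchronised P. falciparum schizonts at about 40–42 hours post-invasion (1% parasitemia, 2.5% hematocrit, AlbuMAX-supplemented RPMI) were treated with compound at 1, 3 or 10 µM, alongside vehicle and positive controls. After glutaraldehyde fixation, Triton permeabilisation and Hoechst 33342 staining, at least 100,000 events were counted by flow cytometry, and values are the mean of three experiments.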
# [4] = tested on: Toxoplasma gondii RH tachyzoites; experiment: plaque count per well; higher = less inhibition; extreme values may be limits of the assay; settings: 10 µM; 8-10 days
# Description: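 T. gondii RH tachyzoites expressing firefly luciferase were grown in HFF monolayers for 48 h with compound. % growth inhibition at 10 µM and EC50 (2-fold dilutions from 10 µM) were read by luminescence relative to 1% DMSO; EC50 listed as 10 (not determined, <80% inhibition) is left out. Plaque assays: 50 tachyzoites per well with 10 µM compound for 8-10 days, giving plaque count and area by crystal violet/ImageJ. Egress: median time to egress after 1 µM A23187 ionophore following 24 h of 10 µM compound (DMSO ~1.8 min; >10 = no egress within 10 min).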
# 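Throughout, for % growth inhibition vs DMSO (48 h luciferase): tested in triplicate wells of 96-well plates on confluent HFF monolayers, with 1% DMSO wells as negative control in four replicates.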
Compound,EC50 growth inhibition [1],% growth inhibition [2],% inhibition of schizont-to-ring transition ([3]; 1 µM),% inhibition of schizont-to-ring transition ([3]; 3 µM),% inhibition of schizont-to-ring transition ([3]; 10 µM),plaque count per well [4]
COc1ccc(-c2c(C)nn3c(N)c(C#N)cnc23)cc1OC,3710 nM,7.54 ± 13%,71.1%,74.9%,76.1%,22
CCOc1cc(CNC(C)C(O)c2ccccc2)cc(Cl)c1OCC (stereo unspecified),1060 nM,15 ± 24%,2%,17.2%,44.2%,0
COc1ccc(-c2cc3c(nn2)-c2ccccc2C3=O)cc1,781 nM,< 0%,14.8%,34.7%,50.6%,29
CN(C)c1ccc(N2C(N)=NC(N)=NC2(C)C)cc1,5680 nM,< 0%,7.46%,13.2%,46.8%,23
O=C(Nc1cccc(C2=NCCN2)c1)Nc1cccc(C2=NCCN2)c1,1840 nM,7.82 ± 3.2%,< 0%,1.31%,32.2%,38
OCCNc1nc(Nc2ccc(Cl)c(Cl)c2)nc2ccccc12,180 nM,< 0%,51%,66.3%,68.9%,0
COc1ccc(CN2CCCC(C(=O)c3ccc(C(F)(F)F)cc3)C2)c(O)c1 (stereo unspecified),912 nM,< 0%,9.13%,32%,51.1%,20
CCOc1cc(Cl)c(C(C)NC(=O)c2cccc(OC)c2)cc1OCC (stereo unspecified),316 nM,< 0%,42.4%,76.9%,78.7%,25
Cc1c(C)n(Cc2ccc(F)cc2)c2ccc(C(=O)NCc3ccco3)cc12,1770 nM,< 0%,36.3%,40.3%,53.4%,21
OC(CNC1CCCC1)Cn1c2ccccc2c2ccccc21 (stereo unspecified),723 nM,15.9 ± 6.6%,22.3%,40.1%,63.4%,0
Cn1c(=O)c2cc(C(=O)NCCCN3CCCCCC3)sc2c2ccccc21,833 nM,5.71 ± 9.9%,42.6%,49.5%,53.2%,25
COc1nc(Nc2ccc(C(C)C)cc2)nc(OC)n1,2540 nM,< 0%,20.3%,32.6%,54.9%,30
COc1ccc(N2CCN(C(CNC(=O)CC(C)(C)C)c3ccc4c(c3)OCO4)CC2)cc1 (stereo unspecified),1680 nM,< 0%,8.37%,17.9%,32.6%,24
Cc1ccc(CSCc2ccc(C(=O)NC3CC3)o2)cc1,1000 nM,3.19 ± 5.5%,14.1%,44.2%,67.4%,25
CCc1c(C)c(=N)c2ccccc2n1C,3380 nM,< 0%,5.96%,11.3%,33.6%,25
Cc1ccc(-c2cc(C(=O)Nc3ccc(S(=O)(=O)N4CCCCC4)cc3)[nH]n2)c(O)c1,9180 nM,< 0%,28.1%,58.9%,67.5%,18
COc1ccc(-c2cc3c(SCC(=O)Nc4cc(C(F)(F)F)ccc4Cl)nccn3n2)cc1,259 nM,< 0%,35.7%,37.5%,49.5%,28
COc1ccc2nc(C)cc(Nc3cccc(O)c3)c2c1,845 nM,19.7 ± 6.3%,42.3%,59.4%,64%,0
O=C(CCc1ccco1)NC1CCN(CC2(c3ccc(Cl)cc3)CCC2)CC1,509 nM,< 0%,18.8%,41%,67.5%,23
O=C(NCC(c1ccsc1)N1CCCCCC1)c1ccc(C(F)(F)F)cc1 (stereo unspecified),3350 nM,11 ± 19%,43.8%,41.5%,47.4%,0
O=C(Nc1ccc(-c2nc3ccccc3[nH]2)cc1)c1ccc(Cl)c(Cl)c1,7300 nM,7.15 ± 8.1%,6.82%,10.1%,44.2%,23
O=[N+]([O-])c1ccc(C=NNc2nc3ccccc3[nH]2)cc1,663 nM,< 0%,29%,43.8%,49%,33
Clc1ccc2c(N3CCCC3)ccnc2c1,1280 nM,< 0%,43.1%,53.3%,69.9%,25
c1ccc(/C2=N/c3ccccc3/N=C(/c3ccccc3)c3ccccc32)cc1,1580 nM,< 0%,57.3%,79.1%,80.6%,0
CCn1c2c(c(=N)c3c1CCC3)CCCC2,2640 nM,< 0%,43.8%,47.9%,56.4%,34
C[n+]1c2ccccc2nc2ccc(NCCO)cc21,96.4 nM,< 0%,33.2%,48.3%,65.4%,0
